According to patent publication US5733931A, “Cyclohexanediurea derivative and process for its production” (Nissin Food Products Co., Ltd., priority 1993, dated 1998):

How the values were obtained:
[1] = test system: ACAT enzyme of human HepG2 cells; assay: ACAT enzyme activity of human HepG2 cells (microsome fractions); type: biochemical; conditions: Table 11, read-out: IC50, inhibitory effect on ACAT enzyme activity, human HepG2
Protocol: (§1) ACAT enzyme activities of the microsomes were determined by the method of J. G. Heider (J. Lipid Res., 24, 1127-1134, 1983). A test sample dissolved in 1% dimethylsulfoxide was added to a microsome fraction (100 μg), a phosphoric acid buffer (0.154M) having pH 7.4, 1-^14 C-oleoyl CoA (36 μM), dithiosleitol (2 mM) and bovine blood serum albumin (36 μg/ml). The reaction mixture adjusted to a final capacity of 0.5 ml was incubated at 37° C. for 60 minutes. A mixture (6 ml) of chloroform and methanol (2:1) was added and the reaction was stopped. Cholesterol oleate was extracted with chloroform and separated by thin-layer chromatography. ACAT enzyme activities of the microsome fractions were determined by radiation measurement.
(§2) [2-2] ACAT enzyme activities of human HepG2 and CaCo2 cells
(§3) Human HepG2 and CaCo2 cells purchased from ATCC (AMERICAN TYPE CULTURE COLLECTION) were used in this test.
(§4) Using RPMI 1640 medium for HepG2 and DMEM medium for CaCo2, HepG2 and CaCo2 cells were cultured with 40 ml of each medium containing 10% bovine blood serum, 50 I.U. of penicillin and 50 μg/ml of streptomycin in a 5% CO2 incubator at 37° C. The cells were then monolayer-culturedwith 80 ml of each medium containing […] of cholesterol and 5 μg/ml of 25-0H cholesterol in a 175 cm flask for 5 hours. The homogenizes of these cells were subjected to centrifugation at 105,000 g to collect microsome fractions. ACAT enzyme activities of the microsome fractions were determined by the above-mentioned method.

serum cholesterol [2] = assay: Serum cholesterol lowering effect in rat having high cholesterol [3-2]; type: in vivo, SD-type (Sprague-Dawley) male rat; conditions: oral, once a day for the last 5 days, Tween 80 and saline suspension, Table 13
Protocol: [3-2] Using a rat having high cholesterol, compounds of the invention were tested for their serum cholesterol lowering effects by the following method. A 6-week-old SD-type (Sprague-Dawley) male rat was fed with food containing 1% of cholesterol, 0.5% of cholic acid and 5% of olive oil for 7 days. For the last 5 days, a test sample suspended in some drops of Tween 80 and saline was orally administered once a day. Four hours after the final administration, a blood sample was taken from celiac aorta of the rat under etherization. The total cholesterol in the serum of the test group was measured by the oxygen method and compared with that of the control group.

[3] = target: ACAT (Acyl-CoA: cholesterol acyltransferase) enzyme of rabbit liver microsome; assay: Inhibitory effect on ACAT enzyme (No.1), rabbit liver microsome; type: biochemical; conditions: Table 9
Protocol: 1) Inhibitory effect on ACAT (Acyl-CoA: cholesterol acyltransferase) enzyme (No.1)
Compounds of the invention were tested for their inhibitory effects on ACAT enzyme of rabbit liver microsome by the method of J. G. Heider (J. of Lipid Res., vol. 24, 1127-1134, 1983). More specifically, the test was done by measuring the amount of labelled cholesterol oleate ester produced from oleic acid CoA (coenzyme A) labelled by radiation.

[4] = target: ACAT enzyme of rabbit liver microsomes; assay: Inhibitory effect on ACAT enzyme (No.2), rabbit liver microsomes; type: biochemical; conditions: pH 7.4, 37° C., 60 minutes, Table 10
Protocol: (§5) 2) Inhibitory effect on ACAT (Acyl-CoA: cholesterol acyltransferase) enzyme (No.2)
(§6) [2-1] ACAT enzyme activities of rabbit liver and small intestine mucosa microsomes
(§7) A white male rabbit was fed with a […] cholesterol-containing food for four weeks and bleeding-slaughtered to extract its liver and small intestine. Microsomes of the liver and small intestine mucosa were prepared by the method of C. Marco et al. (Biochim. Biophys. Acta, 617, 458-471, 1980).
as §1

[5] = test system: ACAT enzyme of human CaCo2 cells; assay: ACAT enzyme activity of human CaCo2 cells (microsome fractions); type: biochemical; conditions: Table 11, read-out: IC50, inhibitory effect on ACAT enzyme activity, human CaCo2
Protocol: as §1, §2, §3, §4

[6] = target: T1, ACAT enzyme of rabbit small intestine mucosa microsomes (Oryctolagus cuniculus, UniProt G1SFD9); assay: Inhibitory effect on ACAT enzyme (No.2), rabbit small intestine mucosa microsomes; type: biochemical; conditions: pH 7.4, 37° C., 60 minutes, Table 10
T1 construct: Microsomes of the liver and small intestine mucosa were prepared; from tissue; host or cells: small intestine mucosa microsomes of a cholesterol-fed white male rabbit
T1 sequence (G1SFD9 1-524): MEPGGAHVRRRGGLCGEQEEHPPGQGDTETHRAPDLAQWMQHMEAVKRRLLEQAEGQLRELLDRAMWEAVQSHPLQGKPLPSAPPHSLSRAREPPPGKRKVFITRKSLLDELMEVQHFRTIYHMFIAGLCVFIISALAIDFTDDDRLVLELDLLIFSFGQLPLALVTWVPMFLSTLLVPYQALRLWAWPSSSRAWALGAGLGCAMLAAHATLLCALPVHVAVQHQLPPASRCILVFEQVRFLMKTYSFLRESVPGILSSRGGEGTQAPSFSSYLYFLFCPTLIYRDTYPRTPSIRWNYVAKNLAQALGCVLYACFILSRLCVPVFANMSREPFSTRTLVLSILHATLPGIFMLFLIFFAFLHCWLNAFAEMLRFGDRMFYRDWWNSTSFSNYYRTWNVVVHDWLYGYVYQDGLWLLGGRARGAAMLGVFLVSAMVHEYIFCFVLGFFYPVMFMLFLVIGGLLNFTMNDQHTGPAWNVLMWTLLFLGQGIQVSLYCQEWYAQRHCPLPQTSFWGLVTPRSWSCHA
Protocol: as §5, §6, §7, §1

serum cholesterol [7] = assay: Serum cholesterol lowering effect in rat having high cholesterol [3-1]; type: in vivo, SD-type (Sprague-Dawley) male rat; conditions: oral, once a day for 5 days, dissolved in saline, Table 12
Protocol: 3) Cholesterol Lowering Effect
[3-1] Using a rat having high cholesterol, compounds of the invention were tested for their serum cholesterol lowering effects by the following method. A 6-week-old SD-type (Sprague-Dawley) male rat was fed with food containing 1% of cholesterol, 0.5% of cholic acid and 5% of olive oil for 2 days and then orally administered the food and a compound of the invention as dissolved in saline once a day for 5 days starting on day 3. Four hours after the final administration, a blood sample was taken. The total cholesterol in the serum of the test group was measured and compared with that of the control group.

| IC50 [1] | IC50 [3] | IC50 [4] | IC50 [5] | IC50 [6] | Structure (SMILES) | Cholesterol lowering effect, % (serum total cholesterol vs control group) (serum cholesterol [2]; 1 mg/kg) | Cholesterol lowering effect, % (serum total cholesterol vs control group) (serum cholesterol [2]; 3 mg/kg) | Cholesterol lowering effect, % (serum total cholesterol vs control group) (serum cholesterol [7]; 3 mg/kg) | Cholesterol lowering effect, % (serum total cholesterol vs control group) (serum cholesterol [7]; 10 mg/kg) |
| --- | --- | --- | --- | --- | --- | --- | --- | --- | --- |
| 1.2 nM | 25 nM | 42 nM | 0.52 nM | 30 nM | CC1CCC(N(C[C@H]2CC[C@H](CN(C(=O)Nc3ccc(N(C)C)cc3)C3CCC(C)CC3)CC2)C(=O)Nc2ccc(N(C)C)cc2)CC1 (relative stereo) [Example 28, Trans-1,4-bis[[3-(4-dimethylaminophenyl)-1-(4-methylcyclohexyl)ureido]methyl]cyclohexane] | 70.2% | 106.5% | 106% | 100% |
| 0.4 nM | – | 180 nM | 0.8 nM | 140 nM | O=C(Nc1ccc(N2CCCC2)cc1)N(C[C@H]1CC[C@H](CN(C(=O)Nc2ccc(N3CCCC3)cc2)C2CCCCC2)CC1)C1CCCCC1 [Example 14-1, Trans-1,4-bis[[1-cyclohexyl-3-(4-pyrrolidinophenyl)ureido]methyl]cyclohexan] | 80.9% | 96.2% | – | – |
